Results taken from patent publication US20180008637A1, “NATURAL KILLER CELLS AND USES THEREOF” (ANTHROGENESIS CORPORATION, priority 2014, published 2018).

Tested on: CD34+ cells
Experiment: Three-stage method with SR-1 or CH223191 in Stage 1 and Stage 2 media: NK cell expansion, purity, cytotoxicity
Type: cell-based
Settings: for effects on fold expansion, cell purity (CD56+CD3−), and cytotoxicity of K562 cells at a 10:1 (E:T) ratio: SR-1 and CH223191 compared at 10 μM and 1 μM
Protocol: CD34^+ cells are cultured in the following medium formulations for the indicated number of days, and aliquots of cells are taken for assessment of cell count, cell viability, characterization of natural killer cell differentiation and functional evaluation.
Stage 1 medium: 90% Stem Cell Growth Medium (SCGM) (CellGro®), 10% Human Serum-AB, supplemented with 4.5 U/mL low molecular weight heparin (LMWH), 25 ng/mL recombinant human thrombopoietin (TPO), 25 ng/mL recombinant human Flt3L, 27 ng/mL recombinant human stem cell factor (SCF), 25 ng/mL recombinant human IL-7, 0.05 ng/mL recombinant human IL-6 (500-fold), 0.25 ng/mL recombinant human granulocyte colony-stimulating factor (G-CSF) (50-fold), 0.01 ng/mL recombinant human granulocyte-macrophage colony-stimulating factor (GM-CSF) (500-fold), 0.10% gentamicin, and 1 to 10 μm StemRegenin-1 (SR-1).
Stage 2 medium: 90% SCGM, 10% Human Serum-AB, supplemented with 4.5 U/mL low molecular weight heparin (LMWH), 25 ng/mL recombinant human Flt3L, 27 ng/mL recombinant human SCF, 25 ng/mL recombinant human IL-7, 20 ng/mL recombinant human IL-15, 0.05 ng/mL recombinant human IL-6 (500-fold), 0.25 ng/mL recombinant human G-CSF (50-fold), 0.01 ng/mL recombinant human GM-CSF (500-fold), 0.10% gentamicin, and 1 to 10 μm SR1.
Stemregenin-1 (SR-1) was evaluated as a component of Stage 1 and Stage 2 media using the three-stage method outlined in Example 1, above, at concentrations of 1 μM, 10 μM, and 30 μM. The same concentrations of CH223191 in the three-stage method were also evaluated.

Row | SMILES | effects on fold expansion, cell purity (CD56+CD3−), and cytotoxicity of K562 cells at a 10:1 (E:T) ratio | cytotoxicity of the NK cells produced (SR-1 at 10 μM versus 1 μM and 30 μM in Stage 1 and Stage 2 media)
1 | CC(C)n1cnc2c(NCCc3ccc(O)cc3)nc(-c3csc4ccccc34)nc21 [SR-1, 4-(2-(2-(benzo[b]thien-3-yl)-9-isopropyl-9H-purin-6-ylamino)ethyl)phenol] | Comparable effects | higher cytotoxicity than the other two concentrations tested
2 | Cc1ccccc1/N=N/c1ccc(NC(=O)c2ccnn2C)c(C)c1 [CH223191, 1-methyl-N-(2-methyl-4-(2-(2-methylphenyl)diazenyl)phenyl)-1H-pyrazole-5-carboxamide] | Comparable effects | 
